LC retention time data for 43 molecules are collected here from the RepoRT retention time repository.

This data set is described as follows: Waters XBridge C18, 0.2 mL/min; A: water + 0.1% formic acid; B: methanol + 0.1% formic acid; gradient (min/%B) 0/10 4/50 17/95 25/95. The settings on record: stereoisomer not certain.
With `CC(C)NCC(O)COc1ccc(COCCOC(C)C)cc1` (stereo not drawn), the LC retention time stood at 6.7 min.
Regarding `COC=C(C(=O)OC)c1ccccc1Oc1cc(Oc2ccccc2C#N)ncn1`, the LC retention time was found to be 11 min.
As for `COc1ccc(C(CN(C)C)C2(O)CCCCC2)cc1` (stereo not drawn), the figure is 6.9 min; as for `CNC(=C[N+](=O)[O-])NCCS(=O)Cc1ccc(CN(C)C)o1` (stereo not drawn), 1.2 min.
As for `COc1ccc(CN2CCNCC2)c(OC)c1OC`, the figure is 3.5 min; as for `CNC(=C[N+](=O)[O-])NCCSCc1ccc(CN(C)C)o1`, 5.6 min.
As for `CN(C)CCOC(c1ccccc1)c1ccccc1`, the LC retention time is 7.4 min.
For `Nc1ccc(S(=O)(=O)Nc2nccs2)cc1`, the LC retention time came out at 4.2 min.
In the case of `CC(C)OC(=O)C(C(=O)OC(C)C)=C1SCCS1`, the LC retention time amounted to 13 min.
As for `Cc1cc(=O)n(-c2ccccc2)n1C`, the figure is 5.9 min.
As for `CCCCC1=NC2(CCCC2)C(=O)N1Cc1ccc(-c2ccccc2-c2nn[nH]n2)cc1`, the figure is 11 min; as for `Cc1cc(C)nc(NS(=O)(=O)c2ccc(N)cc2)n1`, 5.2 min.
For `CCCC1CC(C(=O)NC(C(C)O)C2OC(SC)C(O)C(O)C2O)N(C)C1` (stereo not drawn), the LC retention time worked out at 4.7 min.
As for `Cc1cccc2n[nH]nc12`, the figure is 7.2 min.
As for `NC(=O)N1c2ccccc2C=Cc2ccccc21`, the figure is 9.3 min; as for `CC(C)(C(=O)O)c1ccc(C(O)CCCN2CCC(C(O)(c3ccccc3)c3ccccc3)CC2)cc1` (stereo not drawn), 8.6 min; as for `CC(C)NCC(O)COc1ccc(CC(N)=O)cc1` (stereo not drawn), 3.5 min.
Under `Cc1cc(NS(=O)(=O)c2ccc(N)cc2)no1` stands 5.7 min.
For the molecule `NC(=O)N1c2ccccc2CC(=O)c2ccccc21`, the LC retention time was determined as 8 min.
Under `COc1cc(Cc2cnc(N)nc2N)cc(OC)c1OC` stands 4.7 min; under `CN(C(=O)COc1nc2ccccc2s1)c1ccccc1`, 13 min; under `c1ccc2n[nH]nc2c1`, 5.8 min.
As for `CC(C)N1C(=O)c2ccccc2NS1(=O)=O`, the LC retention time amounted to 8.9 min.
With `CC(C)NCC(O)COc1cccc2ccccc12` (stereo not drawn), the LC retention time was determined as 7.2 min.
Under `CCC(C)OC(=O)N1CCCCC1CCO` (stereo not drawn) stands 9.9 min.
Under `CCCCC(=O)N(Cc1ccc(-c2ccccc2-c2nn[nH]n2)cc1)C(C(=O)O)C(C)C` (stereo not drawn) stands 12 min; under `Cc1cccc(Nc2ccccc2C(=O)O)c1C`, 16 min.
Under `CN(C)C(=N)N=C(N)N` stands 1.2 min; under `COc1cccc(C2(O)CCCCC2CN(C)C)c1` (stereo not drawn), 5.7 min.
On to `CCC1OC(=O)C(C)C(OC2CC(C)(OC)C(O)C(C)O2)C(C)C(OC2OC(C)CC(N(C)C)C2O)C(C)(O)CC(C)C(=NOCOCCOC)C(C)C(O)C1(C)O` (stereo not drawn), for which the LC retention time turned out to be 10 min.
As for `CCN1CCCC1CNC(=O)c1cc(S(=O)(=O)CC)c(N)cc1OC` (stereo not drawn), the LC retention time was 4.6 min.
With `O=P(c1ccccc1)(c1ccccc1)c1ccccc1`, the LC retention time was 11 min.
Under `Cc1cccc2sc3nncn3c12` stands 7.3 min.
As for `O=C(O)c1ccc(-c2ccccc2-c2nn[nH]n2)cc1`, the figure is 7.9 min; as for `CCN(CC)C(=O)c1cccc(C)c1`, 10 min.
Under `CC(C)OP(=O)(OC(C)C)SCc1ccccc1` stands 14 min; under `COC(=O)Nc1nc2ccccc2[nH]1`, 4.7 min.
Turning to `COc1ccc2cc(C(C)C(=O)O)ccc2c1` (stereo not drawn), the LC retention time came out at 12 min.
As for `CC(C)NCC(O)COc1ccc(CC(=O)O)cc1` (stereo not drawn), the LC retention time was 4.7 min.
Under `CCN(CC)CC(=O)Nc1c(C)cccc1C` stands 5.2 min; under `COCC(=O)N(c1c(C)cccc1C)C(C)C(=O)OC` (stereo not drawn), 10 min.
For the molecule `CN=C(NC#N)NCCSCc1nc[nH]c1C`, the LC retention time stood at 3.6 min.
As for `Nc1ccc(S(=O)(=O)Nc2ccccn2)cc1`, the figure is 4.4 min.
